Test [1] concerns E. coli serotype O157:H7 (strain ATCC43895). The format is cell-based.
The test system of test [2] is E. coli O157:H7 strain ATCC43895. Description: Microbial adhesion assay: detachment of 3H-thymidine labeled bacteria from beef tissue by wash. The format is cell-based.

Each structure is given as a SMILES string. Read-outs that look alike come from different tables or passages of the source.

Consider `O=C(O)CC(O)(CC(=O)O)C(=O)O` [0.001 M citric acid, citric acid], for which the “GROWTH (%)” value in test [1] amounted to 103%.

As to `O=C([O-])O.[Na+]` [0.01 M sodium bicarbonate, sodium bicarbonate], in test [1], the “GROWTH (%)” value stood at 112%. With `[Cl-].[Na+]` [0.1 M sodium chloride, sodium chloride], the “GROWTH (%)” value in test [1] stood at 100%. Turning to `CC(O)C(=O)O` (stereo not drawn) [Lactic acid (2%), Lactic acid], the figures for the “% BACTERIAL CELLS DETACHED IN 1-MINUTE” value in test [2], in test [2] (Lean tissue (beef)) and in test [2] (Surface tissue (neck) (beef)) were 68%, 75% and 62%, respectively.

Source of the values: patent US7375080B1, “Immobilized lactoferrin (Im-LF) antimicrobial agents and uses thereof” (priority 1999, dated 2008).
